Laboratory results from patent US11285218B2, “Degradation of bromodomain-containing protein 9 (BRD9) by conjugation of BRD9 inhibitors with E3 ligase ligand and methods of use” (Dana-Farber Cancer Institute, Inc., priority 2016, dated 2022).
“Also recorded” adds a separate entry of the source.

Legend:
BRD4 = BRD4 (Homo sapiens, UniProt O60885); experiment: BRD4 immunoblot in MOLM-13; details: MOLM-13, 4 hour treatment
Experimental: In additional experiments, cells were washed with PBS, before being lysed in RIPA buffer supplemented with 1×HALT™ protease inhibitor cocktail (Thermo Scientific) for 10 min on ice, followed by low-amplitude sonication for 10 seconds at 4° C. (Q125, QSonica, USA). In soluble material was removed by centrifugation at 20,000×g for 20 min before protein content was quantified by BCA assay (Pierce). […] Blots were imaged using fluorescence-labeled secondary antibodies (LI-COR) on the OdysseyCLxImager (LI-COR).

[1] = target: BRD9:CRBN-DDB1 protein complex (Homo sapiens, UniProt Q96SW2+Q9H8M2); experiment: BRD9:CRBN-DDB1 dimerization assay (luminescence); details: for formation of the BRD9:CRBN-DDB1 protein complex: in words
Experimental: To measure this activity, a homogenous luminescence assay was developed to report on compound-induced proximity of BRD9 and CRBN.
(§2) To detect CRBN-DDBI/BRD4 dimerization, we adapted bead-based AlphaScreen technology. […] Compounds were then pinned at 100 nL per well from DMSO stock. After 1 incubation at room temperature. Nickel Chelate AlphaLISA Acceptor and Glutathione AlphaLISA Donor beads (PerkinElmer) were diluted in assay buffer to 20 μg/mL and added at 20 μl per well.

BRD9 [2] = target: T1, BRD9 (Homo sapiens, UniProt Q9H8M2); experiment: BRD9 degradation / cellular activity (Western blot, cell line not stated); details: cell line not given
T1 sequence (Q9H8M2 1-597): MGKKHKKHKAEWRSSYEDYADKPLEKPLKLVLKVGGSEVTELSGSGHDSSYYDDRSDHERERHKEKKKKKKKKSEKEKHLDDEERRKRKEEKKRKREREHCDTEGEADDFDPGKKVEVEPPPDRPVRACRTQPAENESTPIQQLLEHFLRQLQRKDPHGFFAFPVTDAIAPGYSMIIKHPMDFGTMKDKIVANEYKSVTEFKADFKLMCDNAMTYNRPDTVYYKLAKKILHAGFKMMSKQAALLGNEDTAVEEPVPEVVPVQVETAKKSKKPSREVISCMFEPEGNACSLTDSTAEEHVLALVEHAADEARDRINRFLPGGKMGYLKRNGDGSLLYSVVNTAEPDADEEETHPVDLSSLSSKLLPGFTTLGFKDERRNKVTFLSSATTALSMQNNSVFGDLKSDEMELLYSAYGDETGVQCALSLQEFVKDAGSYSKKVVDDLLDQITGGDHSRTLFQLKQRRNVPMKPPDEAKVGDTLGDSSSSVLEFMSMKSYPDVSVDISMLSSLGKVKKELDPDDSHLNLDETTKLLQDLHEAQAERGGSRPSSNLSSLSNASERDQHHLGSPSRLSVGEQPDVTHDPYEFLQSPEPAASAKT

[3] = test system: 32 members of the human bromodomain family; experiment: BromoScan single-point screen, panel profile; format: binding; details: single-point 1 μM, 32 bromodomains; in words
From the text: (§1) The BromoScan is an assay that measures the engagement of compounds with bromodomain proteins by utilizing DNA-tagged bromodomain and immobilized ligand attached to solid support. In the control test, DNA-tagged bromodomain binds to the ligand and the bromodomain is captured on the solid support. Compounds that compete for the bromodomain binding location on the ligand will prevent the bromodomain from binding, resulting in less protein captured on the solid support.

BRD2(2) = target: T2, BRD2(2) (Homo sapiens, UniProt P25440); experiment: BromoScan single-point screen; format: binding; details: percent of protein captured on solid support vs control
T2 construct: utilizing DNA-tagged bromodomain and immobilized ligand attached to solid support
From the text: as §1

TRIM24 (PHD, Bromo.) = target: T3, TRIM24 (PHD, Bromo.) (Homo sapiens, UniProt O15164); experiment: BromoScan single-point screen; format: binding; details: percent of protein captured on solid support vs control
T3 construct: utilizing DNA-tagged bromodomain and immobilized ligand attached to solid support
From the text: as §1

BRPF1 = target: T4, BRPF1 (Homo sapiens, UniProt P55201); experiment: BromoScan single-point screen; format: binding; details: percent of protein captured on solid support vs control
T4 construct: utilizing DNA-tagged bromodomain and immobilized ligand attached to solid support
From the text: as §1

BRD4(2) = target: T5, BRD4(2) (Homo sapiens, UniProt O60885); experiment: BromoScan single-point screen; format: binding; details: percent of protein captured on solid support vs control
T5 construct: utilizing DNA-tagged bromodomain and immobilized ligand attached to solid support
From the text: as §1

EP300 = target: T6, EP300 (Homo sapiens, UniProt Q09472); experiment: BromoScan single-point screen; format: binding; details: percent of protein captured on solid support vs control
T6 construct: utilizing DNA-tagged bromodomain and immobilized ligand attached to solid support
From the text: as §1

BRD3(2) = target: T7, BRD3(2) (Homo sapiens, UniProt Q15059); experiment: BromoScan single-point screen; format: binding; details: percent of protein captured on solid support vs control
T7 construct: utilizing DNA-tagged bromodomain and immobilized ligand attached to solid support
From the text: as §1

BRD1 = target: T8, BRD1 (Homo sapiens, UniProt O95696); experiment: BromoScan single-point screen; format: binding; details: percent of protein captured on solid support vs control
T8 construct: utilizing DNA-tagged bromodomain and immobilized ligand attached to solid support
From the text: as §1

WDR9(2) = target: T9, WDR9(2) (Homo sapiens, UniProt Q9NSI6); experiment: BromoScan single-point screen; format: binding; details: percent of protein captured on solid support vs control
T9 construct: utilizing DNA-tagged bromodomain and immobilized ligand attached to solid support
From the text: as §1

ATAD2A = target: T10, ATAD2A (Homo sapiens, UniProt Q6PL18); experiment: BromoScan single-point screen; format: binding; details: percent of protein captured on solid support vs control
T10 construct: utilizing DNA-tagged bromodomain and immobilized ligand attached to solid support
From the text: as §1

TAF1L(2) = target: T11, TAF1L(2) (Homo sapiens, UniProt Q8IZX4); experiment: BromoScan single-point screen; format: binding; details: percent of protein captured on solid support vs control
T11 construct: utilizing DNA-tagged bromodomain and immobilized ligand attached to solid support
From the text: as §1

BAZ^2A = target: T12, BAZ^2A (Homo sapiens, UniProt Q9UIF9); experiment: BromoScan single-point screen; format: binding; details: percent of protein captured on solid support vs control
T12 construct: utilizing DNA-tagged bromodomain and immobilized ligand attached to solid support
From the text: as §1

BRD9 [4] = target: T1, BRD9; experiment: BRD9 immunoblot in MM1S cells
Experimental: (§3) In additional experiments, cells were washed with PBS, before being lysed in RIPA buffer supplemented with 1×HALT™ protease inhibitor cocktail (Thermo Scientific) for 10 min on ice, followed by low-amplitude sonication for 10 seconds at 4° C. […] In soluble material was removed by centrifugation at 20,000×g for 20 min before protein content was quantified by BCA assay (Pierce). […] Blots were imaged using fluorescence-labeled secondary antibodies (LI-COR) on the OdysseyCLxImager (LI-COR).

BRD7 = BRD7 (Homo sapiens, UniProt Q9NPI1); experiment: BRD7 immunoblot in MOLM-13; details: MOLM-13, 4 hour treatment
Experimental: as §3

MOLM-13 cell line = experiment: ATPlite viability assay, MOLM-13; details: MOLM-13, 72 hours; in words
Experimental: 500 cells/well were plated at a volume of 40 μL/well in white tissue culture treated 384 well assay plates (Thermo Scientific) before DMSO compound stock was added from pre-diluted plates by pin transfer using a Janus Workstation (PerkinElmer, USA). […] Assay plates were allowed to equilibrate to RT for 30 min before reconstituted ATPlite 1 Step reagent (Perkin Elmer) was dispensed at 1:1 volume/well by EL406 automated liquid handler (Biotek, USA).

BRD9 [5] = target: T1, BRD9; experiment: BRD9 immunoblot in MOLM-13
Experimental: as §3

[6] = target: BRD4:CRBN-DDB1 protein complex (Homo sapiens, UniProt O60885+Q96SW2); experiment: CRBN-DDB1/BRD4 dimerization assay (luminescence); details: in words
Experimental: as §2

BRD4(1) = BRD4(1) (Homo sapiens, UniProt O60885); experiment: BromoScan single-point screen; format: binding; set-up: utilizing DNA-tagged bromodomain and immobilized ligand attached to solid support; details: percent of protein captured on solid support vs control
From the text: as §1

CRBN-DDB1 = target: T13, CRBN-DDB1 (Homo sapiens, UniProt Q96SW2); experiment: CRBN-DDB1 ligand-displacement AlphaScreen; format: binding; details: purified CRBN-DDB1 ligand displacement
T13 construct: made in house; host or cells: Sf9 cells (Invitrogen)
Experimental: Following a 30 min incubation, 20 uL detection solution containing Streptavidin Donor Beads and Nickel Chelate AlphaLISA® Acceptor Beads diluted to 20 ng/uL in assay buffer was added to each well.

TRIM33 (PHD, Bromo.) = experiment: BromoScan single-point screen; format: binding, human; details: percent of protein captured on solid support vs control
From the text: as §1

[7] = luminescence detection of dimerization assay
[8] = MMIS cells, 4 hours pretreatment, then 100 nM

T10 sequence (Q6PL18 980-1092 limits assumed): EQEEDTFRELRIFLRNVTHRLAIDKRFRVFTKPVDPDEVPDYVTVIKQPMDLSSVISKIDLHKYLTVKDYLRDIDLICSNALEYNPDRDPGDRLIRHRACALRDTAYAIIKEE
T8 sequence (O95696 562-666 limits assumed): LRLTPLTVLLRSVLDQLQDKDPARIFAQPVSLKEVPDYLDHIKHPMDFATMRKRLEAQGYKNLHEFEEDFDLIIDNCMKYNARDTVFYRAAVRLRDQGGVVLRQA
T12 sequence (Q9UIF9 1793-1897 limits assumed): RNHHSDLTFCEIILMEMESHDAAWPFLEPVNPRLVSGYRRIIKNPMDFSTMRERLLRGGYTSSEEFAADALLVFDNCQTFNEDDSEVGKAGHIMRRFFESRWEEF
T2 sequence (P25440 344-453 limits assumed): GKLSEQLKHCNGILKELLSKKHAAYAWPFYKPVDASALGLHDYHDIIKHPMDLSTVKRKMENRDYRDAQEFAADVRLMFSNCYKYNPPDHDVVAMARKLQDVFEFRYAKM
T7 sequence (Q15059 306-415 limits assumed): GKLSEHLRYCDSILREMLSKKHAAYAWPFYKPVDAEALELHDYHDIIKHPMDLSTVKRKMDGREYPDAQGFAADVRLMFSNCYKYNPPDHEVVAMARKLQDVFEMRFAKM
T9 sequence (Q9NSI6 1313-1418 limits assumed): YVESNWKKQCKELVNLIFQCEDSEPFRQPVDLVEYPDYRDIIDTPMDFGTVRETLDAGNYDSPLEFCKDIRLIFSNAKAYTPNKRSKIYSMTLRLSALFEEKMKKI
T3 sequence (O15164 824-1006 limits assumed): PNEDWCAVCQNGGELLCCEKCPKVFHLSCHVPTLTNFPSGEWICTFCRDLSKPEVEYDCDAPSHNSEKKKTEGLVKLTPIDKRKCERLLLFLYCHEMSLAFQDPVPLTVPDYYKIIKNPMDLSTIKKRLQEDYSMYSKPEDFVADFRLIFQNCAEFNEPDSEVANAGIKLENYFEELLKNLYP
T11 sequence (Q8IZX4 1517-1626 limits assumed): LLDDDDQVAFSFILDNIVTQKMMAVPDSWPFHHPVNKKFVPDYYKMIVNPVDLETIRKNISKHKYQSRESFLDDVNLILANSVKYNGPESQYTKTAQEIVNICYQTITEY
T4 sequence (P55201 628-732 limits assumed): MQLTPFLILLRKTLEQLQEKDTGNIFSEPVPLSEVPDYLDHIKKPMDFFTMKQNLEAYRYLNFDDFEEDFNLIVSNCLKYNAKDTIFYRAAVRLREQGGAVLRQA
Chain of BRD7 (Q9NPI1 whole entry): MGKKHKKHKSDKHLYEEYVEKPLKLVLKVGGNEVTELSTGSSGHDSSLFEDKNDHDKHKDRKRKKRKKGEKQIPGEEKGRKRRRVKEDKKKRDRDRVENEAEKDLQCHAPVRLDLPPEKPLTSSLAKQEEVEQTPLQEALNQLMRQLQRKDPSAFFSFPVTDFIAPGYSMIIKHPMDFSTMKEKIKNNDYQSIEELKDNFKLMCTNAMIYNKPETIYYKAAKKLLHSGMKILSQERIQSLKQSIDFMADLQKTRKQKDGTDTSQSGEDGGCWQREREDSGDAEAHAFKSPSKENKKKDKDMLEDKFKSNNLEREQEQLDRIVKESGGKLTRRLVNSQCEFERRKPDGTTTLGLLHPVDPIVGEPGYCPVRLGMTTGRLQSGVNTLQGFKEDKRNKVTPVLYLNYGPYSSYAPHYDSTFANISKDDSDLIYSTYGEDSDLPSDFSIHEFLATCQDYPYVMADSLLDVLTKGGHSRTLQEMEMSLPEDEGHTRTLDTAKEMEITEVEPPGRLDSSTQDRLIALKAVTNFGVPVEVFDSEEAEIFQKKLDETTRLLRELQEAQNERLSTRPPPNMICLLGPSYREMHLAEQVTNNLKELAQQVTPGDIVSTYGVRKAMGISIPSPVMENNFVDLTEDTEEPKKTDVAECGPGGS
T6 sequence (Q09472 1049-1156 limits assumed): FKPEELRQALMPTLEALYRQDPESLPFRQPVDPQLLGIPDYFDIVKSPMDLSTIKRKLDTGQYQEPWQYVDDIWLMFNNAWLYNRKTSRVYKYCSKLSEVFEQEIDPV

Structure (SMILES): COc1cc(-c2cn(C)c(=O)c3cc(C(=N)NC4CCS(=O)(=O)CC4)sc23)ccc1OCC(=O)NCCCCCCCCNc1cccc2c1CN(C1CCC(=O)NC1=O)C2=O (stereo not shown) [Compound I-17]
- BRD4 degradation (immunoblot) (BRD4): Off target degradation of BRD4, observed at high concentrations
- BRD9:CRBN-DDB1 dimerization, comparison in words [1]: superior; also recorded: effectively induce biochemical association
- BRD9:CRB9-DDB1 AUC [1, 7]: 80620
- BRD9:CRB9-DDB1 Cmax [1, 7]: 26.2 nM
- formation of the BRD9:CRBN-DDB1 protein complex ([1]; relative to unmodified pomalidomide): significantly induce formation of the complex
- formation of the BRD9:CRBN-DDB1 protein complex ([1]; relative to unmodified thalidomide): significantly induce formation of the complex
- BRD9 degradation / cellular potency, in words (BRD9 [2]): superior
- bromodomain interaction profile [3]: also BRD7 and members of the BET family
- % Ctrl @ 1 μM (BRD2(2)): 43 % Ctrl
- % Ctrl @ 1 μM (TRIM24 (PHD, Bromo.)): 84 % Ctrl
- % Ctrl @ 1 μM (BRPF1): 7.6 % Ctrl
- % Ctrl @ 1 μM (BRD4(2)): 40 % Ctrl
- % Ctrl @ 1 μM (EP300): 37 % Ctrl
- % Ctrl @ 1 μM (BRD3(2)): 19 % Ctrl
- % Ctrl @ 1 μM (BRD1): 42 % Ctrl
- % Ctrl @ 1 μM (WDR9(2)): 83 % Ctrl
- % Ctrl @ 1 μM (ATAD2A): 100 % Ctrl
- % Ctrl @ 1 μM (TAF1L(2)): 54 % Ctrl
- % Ctrl @ 1 μM (BAZ^2A): 42 % Ctrl
- BRD9 degradation after pretreatment with excess I-BRD9 (BRD9 [4]; [8]): prevented degradation
- BRD9 degradation after pretreatment with excess lenalidomide (BRD9 [4]; [8]): prevented degradation
- BRD9 degradation with co-treatment with carfilzomib (BRD9 [4]; [8]): Degradation was abolished
- BRD9 levels after pretreatment with neddylation inhibitor (MLN-4924) (BRD9 [4]; [8]): rescued BRD9 levels
- BRD9 loss (immunoblot) (BRD9 [4]; wild type MM.1S cells, 4 hour treatment, indicated doses): marked dose-dependent BRD9 loss
- BRD7 degradation (immunoblot) (BRD7): degradation was observed
- half-maximal anti-proliferative concentration (MOLM-13 cell line): low nanomolar
- maximal efficacy on cell proliferation (MOLM-13 cell line): significantly exceeded that of the more selective I-25
- time to near complete BRD9 loss (BRD9 [5]; MOLM-13, 100 nM): ≤ 1 h
- return of BRD9 during treatment (BRD9 [5]; MOLM-13, 100 nM, 24-hour treatment period): no detectable return
- BRD9 protein level (immunoblot) (BRD9 [5]; MOLM-13, 4 hour treatment, indicated concentrations, in words): effectively downregulate BRD9 over a broad range of concentrations; also recorded: effectively downregulating BRD9 protein over a broad range of concentrations
- formation of the BRD4:CRBN-DDB1 protein complex [6]: effectively induce biochemical association
- % Ctrl @ 1 μM (BRD4(1)): 1.8 % Ctrl
- IC50 (CRBN-DDB1): 11.2 nM
- % Ctrl @ 1 μM (TRIM33 (PHD, Bromo.)): 100 % Ctrl
